The values below come from US20230219951A1, “PYRIDINE-PYRIMIDINE DERIVATIVE, PREPARATION METHOD THEREFOR AND PHARMACEUTICAL USE THEREOF” (Jiangsu Hengrui Pharmaceuticals Co., Ltd., priority 2020, published 2023).

For orientation: IC50 means the concentration that gives 50% inhibition.

Assay [1] concerns the target T1, interaction between the KRAS protein subtype G12D and the SOS1 protein (Homo sapiens, UniProt Q07889).
T1 construct: GST-TEV-SOS1(564-1049) (Viva Biotech, SOS1-191010); purchased SOS1: Viva Biotech; KRAS: Shanghai Panchao Biotechnology Co., Ltd. SOS1-191010
T1 sequence (Q07889 564-1049): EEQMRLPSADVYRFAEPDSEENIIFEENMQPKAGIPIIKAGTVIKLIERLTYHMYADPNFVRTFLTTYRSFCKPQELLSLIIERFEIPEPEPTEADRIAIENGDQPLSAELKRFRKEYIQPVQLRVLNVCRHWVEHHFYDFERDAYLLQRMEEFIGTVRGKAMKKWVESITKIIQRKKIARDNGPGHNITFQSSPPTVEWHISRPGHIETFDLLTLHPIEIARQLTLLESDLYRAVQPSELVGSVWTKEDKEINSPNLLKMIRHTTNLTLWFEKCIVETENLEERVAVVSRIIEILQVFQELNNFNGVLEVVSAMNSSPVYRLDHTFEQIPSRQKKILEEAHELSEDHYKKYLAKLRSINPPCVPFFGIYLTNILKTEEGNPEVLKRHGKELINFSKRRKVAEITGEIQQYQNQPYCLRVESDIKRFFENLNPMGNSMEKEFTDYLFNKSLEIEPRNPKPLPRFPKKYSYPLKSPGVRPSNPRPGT
In words: Inhibition of the interaction between KRAS G12D and SOS1 protein (AlphaLISA/AlphaScreen). As to conditions: KRAS G12D + GST-TEV-SOS1(564-1049) + GDP. Format: binding. The method, then:
(§1) Test Example 1: Inhibitory Ability of Compounds of the Present Disclosure to the Interaction Between the KRAS Protein Subtype G12D or G12V and the SOS1 Protein. The inhibitory ability of the compounds of the present disclosure to the interaction between the KRAS protein subtype G12D or G12V and the SOS1 protein was determined by the following method. The experimental method was briefly described as follows:
(§2) 1. The experimental buffer was prepared prior to the start of the experiment: 1×PBS+0.1% BSA+0.05% tween 20.
(§3) 2. KRAS G12D and KRAS-G12V proteins were labeled with biotin using the biotin labeling kit.
(§4) 1. Firstly, the biotin-labeled KRAS G12D or KRAS G12V protein was mixed and incubated with the SOS1 protein and GDP for later use.
(§5) 2. AlphaLISA glutathione acceptor beads and AlphaScreen streptavidin donor beads were mixed at a ratio of 1:1 to make the concentration of 40 μg/mL for later use.
(§6) 3. The compound was formulated with the experimental buffer to obtain 10 concentration points by 5-fold gradient dilution from an initial concentration of 40 μM.
(§7) 4. In the 384-well microplate, 10 μL of a mixture of KRAS G12D or KRAS G12V protein and SOS1 and GDP and 5 μL of the diluted compound were added to each well and incubated at room temperature for 30 min away from the light.
(§8) 5. Then, 5 μL of a mixture of AlphaLISA glutathione acceptor beads and AlphaScreen streptavidin donor beads was added to each well and incubated at room temperature for 60 min away from the light.
(§9) 6. The fluorescence values were read on a multi-mode microplate reader.
(§10) 7. IC50 values of the compounds were calculated using Graphpad Prism.
(Bead proximity is the source of the signal in Alpha formats.)

Assay [2] relates to ERK phosphorylation of H358 cells. Nature of the assay: Inhibition of ERK phosphorylation of H358 cells (HTRF pERK/total ERK). Format: cell-based. The note with it: Homo sapiens, NCI-H358, 1 h incubation, pERK/total ERK ratio. The method, then: This experiment is intended to evaluate the inhibition effect of the compounds of the present disclosure on the KRAS target (containing the G12C mutation) according to IC50 by determining the inhibition effect of the compounds on ERK phosphorylation of the cells.
H358 cells (ATCC, CRL-5807) were cultured in RPMI1640 (Hyclone, SH30809.01) complete medium containing 10% fetal bovine serum. On the first day of the experiment, the H358 cells were seeded into a 96-well plate at a density of 25,000 cells/well with a complete medium to form 190 μL of cell suspension per well. The plate was incubated overnight in a cell incubator at 37° C. with 5% CO2. The next day, 10 μL of test compound diluted in a gradient prepared with the complete medium was added to each well. The final concentrations of the compound were 9 concentration points obtained by 5-fold gradient dilution from 10 μM. A blank control containing 0.1% DMSO was set. The plate was incubated in a cell incubator at 37° C. with 5% CO2 for 1 h. 1 h later, the 96-well cell culture plate was taken out, the medium was removed by pipetting, 200 μL PBS (Shanghai BasalMedia Technologies Co., Ltd., B320) was added to each well, and the cells were washed once. PBS was removed by pipetting, 50 μL of lysis buffer (Cisbio, 64KL1FDF) containing a blocking reagent (Cisbio, 64KB1AAC) was added to each well, and the plate was shaken on a shaker at room temperature for 40 min for lysis. After lysis, the lysate was pipetted and mixed well, 16 μL of lysate was transferred from each well to each of two HTRF 96-well assay plates (Cisbio, 66PL96100), and then 4 μL of premixed phospho-ERK1/2 antibody solution (Cisbio, 64AERPEG) or 4 μL of premixed total-ERK1/2 antibody solution (Cisbio, 64NRKPEG) was added to each of the two plates. The microplate was sealed with a sealing membrane, centrifuged for 1 min in a microplate centrifuge, and incubated overnight at room temperature away from the light. On the third day, the fluorescence values at an excitation wavelength of 337 nm and at emission wavelengths of 665 nm and 620 nm were read using a PHERAstar multi-mode microplate reader (BMG Labtech, S/N 471-0361).
IC50 values for inhibitory activity of the compounds were calculated using Graphpad Prism software based on compound concentrations and pERK/total ERK ratio.
(TR-FRET usually uses a lanthanide donor and a delayed reading to cut background.)

The next assay concerns H358 cells. Nature of the assay: Inhibition of proliferation of H358 cells (CellTiter-Glo 3D). Format: cell-based. As to conditions: Homo sapiens, NCI-H358, low adsorption plate, 120 h. The method, then: This example is intended to evaluate the inhibition effect of the compounds of the present disclosure on the KRAS target (containing the G12C mutation) by testing the inhibition effect of the compounds of the present disclosure on the proliferation of H358 cells.
H358 cells (ATCC, CRL-5807) were cultured in a complete medium, namely RPMI1640 medium (Hyclone, SH30809.01) containing 10% fetal bovine serum (Corning, 35-076-CV). On the first day of the experiment, the H358 cells were seeded into a 96-well low adsorption plate (Coming, CLS7007-24EA) at a density of 1500 cells/well with a complete medium to form 90 μL of cell suspension per well. The plate was centrifuged at 2000 rpm for 5 min at room temperature and then incubated overnight in a cell incubator at 37° C. with 5% CO2. The next day, 10 μL of test compound diluted in a gradient prepared with the complete medium was added to each well. The final concentrations of the compound were 9 concentration points obtained by 5-fold gradient dilution from 10 μM. A blank control containing 0.1% DMSO was set. The plate was incubated in a cell incubator at 37° C. with 5% CO2 for 120 h. On the seventh day, the 96-well cell culture plate was taken out and 50 μL of CellTiter-Glo® 3D reagent (Promega, G9682) was added into each well. The plate was shaken at room temperature for 25 min, pipetted and mixed well, from which 50 μL of the mixture was transferred into a white impermeable 96-well plate (PE, 6005290). The luminescence signal values were read using a multi-mode microplate reader (PerkinElmer, VICTOR 3).
IC50 values for the inhibitory activity of the compounds were calculated using Graphpad Prism software.
Background: In ATP-based viability assays light output follows the ATP content of the culture.

In assay [3] the target is T2, interaction between the KRAS protein subtype G12V and the SOS1 protein (Homo sapiens, UniProt Q07889).
T2 construct: GST-TEV-SOS1(564-1049) (Viva Biotech, SOS1-191010); purchased SOS1: Viva Biotech; KRAS: Shanghai Panchao Biotechnology Co., Ltd. SOS1-191010
T2 sequence (Q07889 564-1049): T1 sequence (Q07889 564-1049)
In words: Inhibition of the interaction between KRAS G12V and SOS1 protein (AlphaLISA/AlphaScreen). It is filed as binding. The note with it: KRAS G12V + GST-TEV-SOS1(564-1049) + GDP. The method, then: as §1, §2, §3, §4, §5, §6, §7, §8, §9, §10

`Cc1nc(N[C@H](C)c2cccc3c2OCC3(F)F)c2cc([C@]3(O)CC[C@@H](O)CC3)c(=O)[nH]c2n1` (racemic) [Example 25-p1, rac-4-(((R)-1-(3,3-difluoro-2,3-dihydrobenzofuran-7-yl)ethyl)amino)-6-((1s,4S)-1,4-dihydroxycyclohexyl)-2-methylpyrido[2,3-d]pyrimidin-7(8H)-one]: the IC50 in assay [1] worked out at 31 nM; in assay [2], 101 nM; with H358 cells, 120 nM; in assay [3] it was 35 nM.

Consider `Cc1nc(N[C@H](C)c2cccc3c2OCC3(F)F)c2cc([C@]3(O)CC[C@H](O)CC3)c(=O)[nH]c2n1` (racemic) [Example 25-p2, rac-4-(((R)-1-(3,3-difluoro-2,3-dihydrobenzofuran-7-yl)ethyl)amino)-6-((1r,4R)-1,4-dihydroxycyclohexyl)-2-methylpyrido[2,3-d]pyrimidin-7(8H)-one], for which the IC50 stood at 37 nM in assay [1], 489 nM in assay [2], 1020 nM in the assay on H358 cells and 65 nM in assay [3].

For `Cc1nc(N[C@H](C)c2cccc(C(F)(F)CO)c2F)c2cc(C3=CCOCC3)c(=O)[nH]c2n1` [Example 1, (R)-4-((1-(3-(1,1-difluoro-2-hydroxyethyl)-2-fluorophenyl)ethyl)amino)-6-(3,6-dihydro-2H-pyran-4-yl)-2-methylpyrido[2,3-d]pyrimidin-7(8H)-one], the IC50 in assay [1] was found to be 22 nM; in assay [2], 59 nM; in the assay on H358 cells, 34 nM; in assay [3], 54 nM.

Regarding `CC(=O)N1CC=C(c2cc3c(N[C@H](C)c4cc(N)cc(C(F)(F)F)c4)nc(C)nc3[nH]c2=O)CC1` [Example 4, (R)-6-(1-acetyl-1,2,3,6-tetrahydropyridin-4-yl)-4-((1-(3-amino-5-(trifluoromethyl)phenyl)ethyl)amino)-2-methylpyrido[2,3-d]pyrimidin-7(8H)-one], the IC50 in assay [1] was 17 nM; in assay [2] it was 41 nM; with H358 cells, 97 nM; in assay [3], 67 nM.

On to `CC(=O)N1CCC(O)(c2cc3c(N[C@H](C)c4cccc(C(F)F)c4F)nc(C)nc3[nH]c2=O)CC1` [Example 12, (R)-6-(1-acetyl-4-hydroxypiperidin-4-yl)-4-((1-(3-(difluoromethyl)-2-fluorophenyl)ethyl)amino)-2-methylpyrido[2,3-d]pyrimidin-7(8H)-one], for which the IC50 amounted to 14 nM in assay [1], 48 nM in assay [2], 55 nM in the assay with H358 cells and 50 nM in assay [3].

Consider `Cc1nc(N[C@H](C)c2cccc(C(F)F)c2F)c2cc(N3CCOCC3)c(=O)[nH]c2n1` [Example 16, (R)-4-((1-(3-(difluoromethyl)-2-fluorophenyl)ethyl)amino)-2-methyl-6-morpholinopyrido[2,3-d]pyrimidin-7(8H)-one], for which the IC50 in assay [1] was 39 nM; in assay [2], 218 nM; in the assay on H358 cells, 97 nM; in assay [3], 136 nM.

For the compound `Cc1nc(N[C@H](C)c2cccc(C(F)F)c2F)c2cc(C3CCN(C(=O)CC#N)CC3)c(=O)[nH]c2n1` [Example 17, (R)-3-(4-(4-((1-(3-(difluoromethyl)-2-fluorophenyl)ethyl)amino)-2-methyl-7-oxo-7,8-dihydropyrido[2,3-d]pyrimidin-6-yl)piperidin-1-yl)-3-oxopropanenitrile], the half-inhibitory concentration (IC50) came out at 28 nM in assay [1], 79 nM in assay [2], 65 nM with H358 cells and 30 nM in assay [3].

Turning to `Cc1nc(N[C@H](C)c2cccc(C(F)F)c2F)c2cc([C@]3(O)CC[C@H](O)CC3)c(=O)[nH]c2n1` [Example 18-p2, 4-(((R)-1-(3-(difluoromethyl)-2-fluorophenyl)ethyl)amino)-6-((1r,4R)-1,4-dihydroxycyclohexyl)-2-methylpyrido[2,3-d]pyrimidin-7(8H)-one], the IC50 came to 40 nM in assay [1], 222 nM in assay [2], 213 nM in the assay on H358 cells and 112 nM in assay [3].

With `COCC(=O)N1CCC(c2cc3c(N[C@H](C)c4cccc(C(F)F)c4F)nc(C)nc3[nH]c2=O)CC1` [Example 20, (R)-4-((1-(3-(difluoromethyl)-2-fluorophenyl)ethyl)amino)-6-(1-(2-methoxyacetyl)piperidin-4-yl)-2-methylpyrido[2,3-d]pyrimidin-7(8H)-one], the half-maximal inhibitory concentration (IC50) was 19 nM in assay [1], 78 nM in assay [2], 118 nM in the assay on H358 cells and 60 nM in assay [3].

Take `Cc1nc(N[C@H](C)c2cccc(C(F)F)c2F)c2cc(C3(O)CCN(C(=O)CC#N)CC3)c(=O)[nH]c2n1` [Example 21, (R)-3-(4-(4-((1-(3-(difluoromethyl)-2-fluorophenyl)ethyl)amino)-2-methyl-7-oxo-7,8-dihydropyrido[2,3-d]pyrimidin-6-yl)-4-hydroxypiperidin-1-yl)-3-oxopropanenitrile]: the IC50 amounted to 15 nM in assay [1], 87 nM in assay [2], 62 nM in the assay with H358 cells and 54 nM in assay [3].
